Values of other authors in patent publication US9839609B2 (priority 2009, dated 2017).

Assays:
[1] = oral, rats
[2] = chronic administration
[3] = in vivo

Structure (SMILES) | LD50 [1] | dose chronically administered without any serious adverse effects [2] [g/kg daily] | fraction of DMSO metabolized into MSM in the body [3]
CS(C)(=O)=O [MSM, Methylsulfonylmethane] | approximately 17 g/kg |  | 
C[S+](C)[O-] [DMSO, Dimethyl sulfoxide] |  | 5 | Approximately 17%
